Experiments:
[1] = molecular target: T1, dihydroceramide desaturase-1 (DES1) (Gallus gallus, UniProt Q5F3C1); format: biochemical
T1 sequence (Q5F3C1 1-323): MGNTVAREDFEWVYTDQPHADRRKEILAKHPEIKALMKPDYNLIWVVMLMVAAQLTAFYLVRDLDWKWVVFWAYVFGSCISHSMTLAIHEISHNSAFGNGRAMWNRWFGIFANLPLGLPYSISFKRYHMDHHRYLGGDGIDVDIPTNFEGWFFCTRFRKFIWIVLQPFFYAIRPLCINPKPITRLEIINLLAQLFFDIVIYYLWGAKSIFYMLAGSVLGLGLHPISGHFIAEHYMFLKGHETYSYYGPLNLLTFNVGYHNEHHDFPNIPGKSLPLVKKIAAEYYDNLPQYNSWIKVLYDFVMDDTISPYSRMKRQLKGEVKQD

[2] = molecular target: T1, dihydroceramide desaturase-1 (DES1); assay: retinol isomerase assay with purified GST-DES1, HPLC of products; format: biochemical
[3] = molecular target: DES1 (Homo sapiens, UniProt O15121); assay: retinol isomerase assay in homogenates of transfected […] cells, HPLC; format: cell-based
DES1, sequence (O15121 2-323): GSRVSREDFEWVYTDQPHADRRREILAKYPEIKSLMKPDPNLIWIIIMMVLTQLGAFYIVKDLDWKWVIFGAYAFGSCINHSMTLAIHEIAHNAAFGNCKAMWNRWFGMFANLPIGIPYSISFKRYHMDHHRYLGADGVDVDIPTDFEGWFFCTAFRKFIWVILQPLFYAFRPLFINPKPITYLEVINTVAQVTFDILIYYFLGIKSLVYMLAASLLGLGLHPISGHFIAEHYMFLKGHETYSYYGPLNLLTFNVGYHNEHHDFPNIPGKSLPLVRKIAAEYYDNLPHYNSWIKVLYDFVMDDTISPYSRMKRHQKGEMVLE

SMILES | Ki [1] [µM] | retinol isomerase assay with purified GST-DES1, HPLC of products [2] | retinol isomerase assay in homogenates of transfected 293T cells, HPLC [3]
CC1=C(/C=C/C(C)=C/C=C/C(C)=C/C(=O)Nc2ccc(O)cc2)C(C)(C)CCC1 [4-HPR, fenretinide] | 8.5 |  | 
CC1=C(/C=C/C(C)=C/C=C/C(C)=C/CO)C(C)(C)CCC1 [all-trans-ROL, all-trans-retinol] |  | Purified GST-DES1 exhibited dramatically higher isomerase-2 activities | The rate of 11-cis-ROL synthesis was dramatically higher for DES1 versus the other membrane desaturases

— PMC3522777 (Nature chemical biology, 2012)
